Test results reported in patent US8597693B2, “Pharmaceutical composition with immunomodulating function” (Industrial Technology Research Institute, priority 2010, dated 2013).
≈ marks a conversion by molar mass, not a printed value.

How the values were obtained:
IL-6 [1] = experiment: TNBS enteritis mouse model, IL-6 in colon infusion; format: in vivo, BABL/c mice; details: 0.6 mg/kg fed + 1.75 mg of TNBS; colon infusion after 48 hours; negative value = enhanced excretion
Text: (§1) The BABL/c mice were categorized into 4 groups. Each group had 6 […].

TNF-α [2] = experiment: TNBS enteritis mouse model, TNF-α in colon infusion; format: in vivo, BABL/c mice; details: 0.6 mg/kg fed + 1.75 mg of TNBS; colon infusion after 48 hours; negative value = enhanced excretion
Text: as §1

TNF-α [3] = experiment: Inhibition of TNF-α excretion in LPS-stimulated U937 cells; format: cell-based; details: Homo sapiens, U-937; PMA-activated U937, 30 minutes preincubation, LPS 4 hours, ELISA of supernatant
Experimental: The cell line, U937 (human monocyte cell line), was incubated in RPMI medium containing 50 ng/ml PMA (phorbol 12-myristate 13-acetate) (Sigma) and 10% fetal bovine serum (Moor et. al., Roswell Park Memorial Institute) for 24 hours. The cell line was then moved to the RPMI medium without PMA for further 48 hours. The activated U937 was seeded into a 96-well plate in a concentration of 1.6×10^5 cell/well. The wells were added 12.5 μg/ml, 25 μg/ml, 50 μg/ml and 100 μg/ml of kaerophyllin and 1 μg/ml, 3 μg/ml, 10 μg/ml and 30 μg/ml of isokaerphyllin and 10 μl of buffer, respectively. Each well was adjusted to a final volume of 190 μl. The plate was reacted under 37° C. for 30 minutes. Each well was added 10 μl of 20 μg/ml LPS to stimulate cells. After 4 hours under 37° C., the plate was centrifuged to collect the supernatants.
The amount of TNF-α in the supernatant was measured by ELISA (R&D System®) based on the control (DMSO). Meanwhile, the cell viability was measured by MTT assay (Sigma).

IL-6 [4] = experiment: Inhibition of IL-6 excretion in LPS-stimulated U937 cells; format: cell-based; details: Homo sapiens, U-937; PMA-activated U937, 30 minutes preincubation, LPS 16-18 hours, ELISA of supernatant
Experimental: The cell line, U937, was cultured like Example 13. The activated U937 was then seeded in a 96-well plate in a concentration of 1.6×10^5 cell/well. The wells were added 6.3 μg/ml, 12.5 μg/ml, 25 μg/ml and 50 μg/ml of kaerophyllin and 3.8 μg/ml, 7.5 μg/ml, 15 μg/ml and 30 μg/ml of isokaerphyllin and 10 μl of buffer, respectively. Each well was adjusted to a final volume of 190 μl. The plate was put under 37° C. for 30 minutes. Each well was added 10 μl of 20 μg/ml LPS to stimulate cells. After 16-18 hours under 37° C., the plate was centrifuged to collect the supernatants.
The amount of IL-6 in the supernatant was measured by ELISA (R&D System®) based on the control (DMSO). Meanwhile, the cell viability was measured by MTT assay (Sigma).

[5] = tested on: carrageenan induced hindpaw edema; experiment: Carrageenan induced hindpaw edema in a rat model; format: in vivo, Long-Evan rats; details: 3 mg/kg fed 1 hour before carrageenan (positive control), left hindpaw volume
Experimental: Long-Evan rats were fed with the extract (a) in Example 5 (i) in an amount of 250 mg/kg, 500 mg/kg, 1000 mg/kg, respectively. The positive control was fed with 3 mg/kg of indomethacin (NSAID). The negative control was fed with 10 ml/kg of 2% Tween 80 as a carrier. After 1 hour, the rats were injected 0.1 ml of 1% carrageenan on the left hindpaw. The volume of the rat's left hindpaw was measured by plethysmometer (Stoelting) at the 0, 1.5th, and 3rd hour after injection. The inhibition was calculated by the formula: Inhibition(%)=(Nt−Nv)/Nv×100
In the formula, Nt represents the left hindpaw volume of the rat fed with the ethanol extract; Nv represents the left hindpaw of the rat fed with the carrier.

C[C@@H]1C[C@H]2[C@@H]3CCC4=CC(=O)C=C[C@]4(C)[C@@]3(F)[C@@H](O)C[C@]2(C)[C@@]1(O)C(=O)CO [DEX, dexamethasone]
Inhibition of IL-6 (%) (IL-6 [1]): −55% | Inhibition of TNF-α (%) (TNF-α [2]): 9%

COc1ccc(/C=C2\C(=O)OC[C@@H]2Cc2ccc3c(c2)OCO3)cc1OC [isokaerophyllin, cis-(3,4-dimethoxybenzylidene)-β-(3,4-methylenedioxylbenzyl)-γ-butyrolactone]
IC50 (TNF-α [3]): 18 ± 4 µg/mL (≈ 48.9 µM) | IC50 (IL-6 [4]): 24 ± 6 µg/mL (≈ 65.1 µM)

COc1ccc2c(c1)c(CC(=O)O)c(C)n2C(=O)c1ccc(Cl)cc1 [indomethacin]
Inhibition at 0 hour (%) ([5]; 0 hour): 0% | Inhibition at the 1.5th hour (%) ([5]; 1.5th hour): 21% | Inhibition at the 3rd hour (%) ([5]; 3rd hour): 52%
